Reference: US7815907B2, “Antibodies to insulin-like growth factor I receptor” (Amgen Fremont Inc., priority 2001, dated 2010)

Columns and labels:
[1] = tested on: A431 tumors; test: Growth inhibition of epidermoid carcinoma cell tumors; assay type: in vivo, nude mice
Procedure: Tumors were induced in nude mice essentially as described in Example IX except that A431 cells (ATCC CRL 1555) were used. A431 cells are human epidermoid carcinoma cells that overexpress EGFR. Mice with established subcutaneous tumors of approximately 250 mm^3 were treated on days 1, 8, 15, 22 and 29 with 500 μg 2.13.2 antibody (i.p.) or were treated once daily for 27 days with 10 mg/kg CP-358,774 given orally (p.o.), either as single agents or in combination, as described in Example IX. CP-358,774 is described in U.S. Pat. No. 5,747,498 and Moyer et al., Cancer Research 57: 4838-4848 (1997), herein incorporated by reference.

[2] = Pharmacokinetics after single intravenous injection; assay type: in vivo; settings: cynomolgus monkeys, 3, 30 or 100 mg/kg intravenously
Procedure: To evaluate the pharmacokinetics of the anti-IGF-IR antibodies, cynomolgus monkeys were injected intravenously with 3, 30 or 100 mg/kg of 2.13.2 antibody in an acetate buffer. Serum was collected from the monkeys at various time points and anti-IGF-IR antibody concentrations in the monkeys were determined for a period of up to ten weeks levels. To quantitate functional serum antibody levels, the extracellular domain of the human IGF-IR (IGF-I-sR, R&D Systems, Catalog # 391GR) was bound to 96-well plates. Monkey serum (diluted between 1:100 and 1:15,000) was added to the assay plates so that each sample would be within the linear range of the standard curve and incubated under conditions in which any anti-IGF-IR antibody would bind to IGF-I-sR. After washing the plates, a labeled anti-human IgG antibody was added to the plates and incubated under conditions in which the anti-human IgG antibody would bind to the anti-IGF-IR antibody. The plates were then washed and developed, and a control standard curve and linear regression fits used to quantitate the amount of anti-IGF-IR antibodies.

[3] = tested on: MCF-7 tumors; test: Growth inhibition of breast cancer cell tumors; assay type: in vivo, nude mice
Procedure: Nude mice as described in Example VIII were implanted with biodegradable estrogen pellets (0.72 mg 17-β-estradiol/pellet, 60 day release; Innovative Research of America). After 48 hours, tumors were induced in nude mice essentially as described in Example IX except that MCF-7 cells (ATCC HTB-22) were used. MCF-7 cells are estrogen-dependent human breast carcinoma cells. Mice with established subcutaneous tumors of approximately 250 mm^3 were treated with 50 μg 2.13.2 antibody (i.p.) on days 1, 4, 7, 10, 13, 16, 19 and 22 […] or with 6.25 mg/kg taxol (i.p.) on days 1, 2, 3, 4, 5 (q1dx5), either as single agents or in combination, essentially as described in Example IX.
Mice having established tumors from MCF-7 cells as described immediately above were treated on day 1 with various amounts of 2.13.2 antibody (i.p.) alone or with 3.75 mg/kg adriamycin (i.v.), essentially as described in Example IX.
Mice having established tumors from MCF-7 cells as described immediately above were treated with 250 μg 2.13.2 antibody (i.p.) on days 1, 8, 15 and 23 or with a biodegradable tamoxifen pellet (25 mg/pellet, free base, 60 day release, Innovative Research of America), either as single agents or in combination, essentially as described in Example IX. The tamoxifen pellet was implanted on day 1 after the tumor was established.

[4] = tested on: 3T3/IGF-IR cell tumors; test: Growth inhibition of 3T3/IGF-IR cell tumors; assay type: in vivo, athymic (nu/nu) mice
Procedure: We tested whether anti-IGF-IR antibodies of the invention would function to inhibit tumor growth. We induced tumors as described above (Example VIII) and when established, palpable tumors formed (i.e. 250 mm^3, within 6-9 days), we treated the mice with a single, 0.20 ml dose of antibody by intraperitoneal injection. We measured tumor size by Vernier calipers across two diameters every third day and calculated the volume using the formula (length×[width]^2)/2 using methods established by Geran, et al., “Protocols for screening chemical agents and natural products against animal tumors and other biological systems,” Cancer Chemother. Rep. 3:1-104.
Tumors were induced in nude mice as described in Example IX. Mice with established subcutaneous tumors of approximately 250 mm^3 were treated on days 1, 8, 15 and 22 with various amounts of 2.13.2 antibody (i.p.) or 7.5 mg/kg adriamycin (i.v.), either as single agents or in combination, as described in Example IX.
Tumors were induced in nude mice as described in Example IX. Mice with large established subcutaneous tumors of slightly less than 2000 mm^3 were treated on days 1 and 8 with various amounts of 2.13.2 antibody (i.p.) or 7.5 mg/kg adriamycin (i.v.), either as single agents or in combination, as described in Example IX. […] Control, antibody alone and adriamycin alone animal groups were terminated at day 5, when the tumor size exceeded 2000 mm^3.

2.13.2: human IgG2κ monoclonal antibody specific for IGF-IR from hybridoma 2.13.2 (ATCC PTA-2788)
effect on effectiveness of CP-358,774 ([1]; 500 μg i.p. on days 1, 8, 15, 22 and 29 with 10 mg/kg CP-358,774 p.o. daily for 27 days): enhances the effectiveness of CP-358,774 | A431 tumor growth ([1]; multiple doses, alone or in combination with CP-358,774 (FIG. 16)): inhibit A431 tumor growth | dose proportionality of serum amounts [2]: dose-proportional | volume distribution [2]: 74 to 105 mL/kg | effect on effectiveness of taxol ([3]; 50 μg i.p. once every three days with 6.25 mg/kg taxol i.p. q1dx5): enhances the effectiveness of taxol | MCF-7 tumor growth ([3]; 50 μg i.p. once every three days, by itself): inhibits human breast cancer cell growth | MCF-7 tumor growth ([3]; 250 μg i.p. on days 1, 8, 15 and 23, by itself): inhibits human breast cancer growth | effect on effectiveness of tamoxifen ([3]; 250 μg i.p. on days 1, 8, 15 and 23 with tamoxifen pellet 25 mg): enhances the effectiveness of tamoxifen | MCF-7 tumor growth ([3]; single treatment i.p. on day 1, by itself): inhibits human breast cancer cell growth | effect on effectiveness of adriamycin ([3]; single treatment on day 1 with 3.75 mg/kg adriamycin i.v.): enhances the effectiveness of adriamycin | tumor cell growth ([4]; antibody i.p. on days 1, 8, 15 and 22, single agent): inhibits tumor cell growth | growth delay versus treatment with the antibody or adriamycin alone ([4]; combination with single dose 7.5 mg/kg adriamycin i.v.): 7 days | tumor cell growth in combination with adriamycin ([4]; days 1, 8, 15 and 22, with 7.5 mg/kg adriamycin i.v.): enhances inhibition of tumor cell growth | effect on effectiveness of adriamycin ([4]; single dose antibody with single dose 7.5 mg/kg adriamycin i.v.): enhanced the effectiveness of adriamycin | tumor growth ([4]; single treatment i.p., antibody alone): inhibited the growth | efficacy against large tumors in combination with adriamycin ([4]; tumors slightly less than 2000 mm^3, days 1 and 8, with 7.5 mg/kg adriamycin i.v.): highly efficacious
